Read-outs that look alike come from different tables or passages of the source.
Experiments:
[1] = tested on: collagen-induced arthritis (CIA); assay type: in vivo
Procedure: These Examples were conducted to investigate the effectiveness of sturgeon notochord in protecting mice from collagen-induced arthritis (CIA). Female DBA/1 Lac J strain mice, approximately 6-8 weeks of age, were obtained from Jackson Laboratories of Bar Harbor, Maine. Three groups of 20 mice per group were acclimated to their surroundings for 7 days. A standard mouse chow (Purina Certified Mouse Chow #5015; 11% by wt. fat; collagen-free) and water were provided for ad libitum consumption to all animals.
Bovine serum albumin (a protein derived from non-connective tissue) and cod skin gelatin (a protein derived from another connective tissue containing Type I collagen of a fish) served as negative controls. Sturgeon notochord was obtained from farm raised sturgeon and pulverized in liquid nitrogen. The level of each test composition was equilibrated to a 300 μg protein dose based on protein (including collagen) content. Test articles were dissolved/suspended in 0.01 M acetic acid and 0.3 ml was administered per dose to each mouse with a ball tipped feeding needle.
On Day 0, the mice were immunized at the base of the tail with 100 μg of bovine CII which was emulsified in Complete Freund's Adjuvant (CFA). On Day 7, a second booster dose of 100 μg bovine CII in CFA was administered by the same route. On Day 14, the mice were injected subcutaneously with 100 μg of lipopolysaccharide (LPS). This protocol represents a mild induction of CIA.
Mice were inspected daily for the onset of CIA, characterized by erythema and edema. Limbs were clinically evaluated and graded on a scale of 0 to 3 (0, absence of arthritis; 1, mild swelling and erythema; 2, swelling and erythema of both tarsus and ankle; 3, ankylosis and bone deformity). […] All mice were euthanized by CO2 on Day 50.

[2] = tested on: collagen-induced arthritis (CIA); assay: Dose response of sturgeon notochord in protecting mice from CIA; assay type: in vivo, DBA/1 Lac J strain mice; conditions: 0.1 mg/kg p.o.
Procedure: To evaluate the dose response of sturgeon notochord in protecting mice from CIA, this experiment was conducted in a manner similar to Examples II and III. The mice were DBA/1 Lac J strain supplied by Jackson Laboratories of Bar Harbor, Maine. All mice were female and about 6-8 weeks of age. Eight groups of 10-15 mice per group were acclimated to their surroundings for 7 days. A standard mouse chow and water were provided for ad libitum consumption to all animals.
On Days[…] −10, −7, −5 and −2 prior to immunization, mice were sensitized by sturgeon notochord. A group fed only vehicle was used as the negative control and a group fed with an effective dose of dexamethasone (0.1 mg/kg per os) was used as the positive control. Sturgeon notochord was obtained from farm raised sturgeon and pulverized in liquid nitrogen. The dose level of sturgeon notochord was equilibrated to 1, 3, 10, 30, 100 or 300 μg of collagen per dose based on the protein and collagen content. Sturgeon notochord was dissolved/suspended in 0.01 M acetic acid and 0.3 ml was administered to each mouse with a ball tipped feeding needle.
On Day 0, the mice were immunized at the base of the tail with 100 μg of bovine CII which was emulsified in CFA. On Day 21, the mice were injected subcutaneously with 50 μg of LPS.
Mice were inspected daily for the onset of CIA, characterized by erythema and edema. Limbs were clinically evaluated and graded on a scale of 0 to 6 as described in Example III.
The inventors continued to observe four selected groups (vehicle control group, sturgeon notochord 0.105 mg/dose group, sturgeon notochord 1.053 mg/dose group, and dexamethasone group) until Day 79. Severity scores plotted against days post-sensitization are found in FIG. 1.

[3] = tested on: chronic CIA induced by using human CII; assay: Chronic CIA induced by human type II collagen; assay type: in vivo, Female DBA/1 Lac J strain mice; conditions: 0.1 mg dexamethasone/kg BW on Days 21 and 35
Procedure: Effect of Sturgeon Notochord in a Chronic Arthritis Induced by Human Type II Collagen This experiment was conducted to investigate the effectiveness of sturgeon notochord in protecting mice from chronic CIA induced by using human CII (unlike other examples in this application which used bovine CII). Female DBA/1 Lac J strain mice, approximately 6-8 weeks of age, were obtained from Jackson Laboratories of Bar Harbor, Maine. Animals were acclimated to their surroundings for 7 days. A standard mouse chow (Teklad diet) and water were provided for ad libitum consumption.
The chronic CIA induction was achieved by immunizing each mice on Day 0 and Day 21 at the base of the tail with […] of human CII which was emulsified in CFA. Animals in the vehicle control group and Dexamethasone control group received 0.01 M acetic acid on Days −10, −7, −5, and −2 and 0.1 mg dexamethasone/kg BW on Days 21 and 35, respectively. The mice receiving sturgeon notochord were divided into three groups and they were dosed with 100 mg collagen per dose dissolved/suspended in 0.01 M acetic acid and 0.3 ml was administered. Group 1 received sturgeon notochord on Days −10, −7, −5, and −2; Group 2, on Days 7, 10, 12, and 14; Group 3, Days 28, 31, 33, and 35.
Mice were inspected daily for the onset of CIA, characterized by erythema and edema. Limbs were clinically evaluated and graded on a scale of 0 to 6 (0, absence of arthritis; 0.5, one or more digits swollen or only the paw swollen; 1, entire paw swollen; 2, entire paw severely swollen; 3, mild deformity after inflammation subsides; 4, severe deformity; 5, mild ankylosis with partial loss of joint function in the paw; 6, severe ankylosis with total loss of joint function in the paw). […]

bovine serum albumin [BSA] was tested, and the “median day of onset” value ([1]; 300 μg protein dose oral on Days −10, −7, −5 and −2) was 17 days, the “# animals with arthritis” value ([1]; Day 20, 300 μg protein dose oral on Days −10, −7, −5 and −2) was 12 and the “# animals with arthritis” value ([1]; Day 28, 300 μg protein dose oral on Days −10, −7, −5 and −2) was 12. The “# animals with arthritis” value ([1]; Day 40, 300 μg protein dose oral on Days −10, −7, −5 and −2) was 12, the “# animals with arthritis” value ([1]; Day 50, 300 μg protein dose oral on Days −10, −7, −5 and −2) was 14 and the “% onset” value ([1]; calculated based on the Day 50 data, 300 μg protein dose) was 78%. It also gave a mean severity score ([1]; scale of 0 to 3, based on Day 20, 29, 34, 43 and 50 data, 300 μg protein dose) of 2.05.
With C[C@@H]1C[C@H]2[C@@H]3CCC4=CC(=O)C=C[C@]4(C)[C@@]3(F)[C@@H](O)C[C@]2(C)[C@@]1(O)C(=O)CO [Dexamethasone] the “% of incidence” value ([2]; D26) was 40%, the severity score ([2]; D26) was 1.0 ± 0.4 and the “% of incidence” value ([2]; D28) was 50%. For the same molecule, the severity score ([2]; D28) was 1.1 ± 0.4, the “% of incidence” value ([2]; D35) was 50% and the severity score ([2]; D35) was 1.1 ± 0.4. For the same molecule, the “% incidence” value ([3]; D28) was 33%, the severity score ([3]; D28) was 0.25 and the “% incidence” value ([3]; D35) was 67%. The severity score ([3]; D35) was 0.42, the “% incidence” value ([3]; D42) was 100% and the severity score ([3]; D42) was 1.75. The “% incidence” value ([3]; D49) was 100% and the severity score ([3]; D49) was 3.58.

From patent US6423347B1, “Method and product using sturgeon notochord for alleviating the symptoms of arthritis” (Abbott Laboratories, priority 1997, dated 2002)
